Source: patent US20260124168A1, “OIL COMPOSITION COMPRISING CAPROIC ACID RESIDUES, UNSATURATED FATTY ACID RESIDUES AND SATURATED FATTY ACID RESIDUES” (AAK AB (PUBL), priority 2022, published 2026)

What was measured:
IL-6 = IL-6 production by LPS-treated hMADS adipocytes (ECL immunoassay); format: cell-based, human; details: fatty acid 10-4 to 10-9 mol 24 h then 5 ug/mL LPS 24 h, versus LPS only, all tested concentrations, FIG. 8/9
Experimental: An experiment was carried out to ascertain the extent to which butyric acid and caproic acid effect the production of the proinflammatory cytokine IL-6 in an inflammatory condition.
Pooled human multipotent adipose tissue-derived stem cells (hMADS), were differentiated into the adipogenic lineage, creating a human white adipocyte model. hMADS cells were derived from male human donors with a large range in BMI (20-40 kg/m2) and glucometabolic status, and age between 35 and 70 years of age. Cells were seeded at a density of 2,000 cells/cm2 and kept in a proliferation medium containing Dulbecco's modified Eagle's medium (DMEM), Ham's F-12 Nutrient Mixture (Gibco, Bleiswijk, Netherlands), 10% fetal bovine serum (Bodinco BV, Alkmaar, NL, Netherlands), 50 U/ml penicillin (Gibco), and 50 μg/ml of streptomycin (Gibco)].
At 70-80% confluence, 250 μmol/L IBMX (Sigma, St. Louis, MI, USA) and 5 μmol/L rosiglitazone (Enzo Life Sciences, Raamsdonksveer, Netherlands) were added to induce adipogenic differentiation. Experiments were carried out between days 12 and 14 of the differentiation. […]
IL-6 cytokine levels in the culture supernatant were evaluated using a electrochemiluminescence (ECL) immunoassay (MSD; Rockville, Maryland) according to the manufacturers protocol. […]

IL-10 = IL-10 mRNA expression in LPS-treated hMADS derived adipocytes (real-time PCR); format: cell-based, human; details: butyric acid 10^−4M, hexanoic acid 10^−5M, 24 h then 5 ug/mL LPS 24 h, relative to LPS without short chain fatty acids, FIG. 10
Experimental: In the experiment, adipose tissue-derived stem cells were pre-treated with butyric acid, caproic acid, and a combination thereof after which lipopolysaccharide (LPS) was added to induce (low-grade) inflammation. […] Pooled human multipotent adipose tissue-derived stem cells (hMADS), were differentiated into the adipogenic lineage, creating a human white adipocyte model. hMADS cells were derived from male human donors with a large range in BMI (20-40 kg/m2) and glucometabolic status, and age between 35 and 70 years of age. Cells were seeded at a density of 2,000 cells/cm2 and kept in proliferation medium containing Dulbecco's modified Eagle's medium (DMEM), Ham's F-12 Nutrient Mixture (Gibco, Bleiswijk, Netherlands), 10% fetal bovine serum (Bodinco BV, Alkmaar, NL, Netherlands), 50 U/ml penicillin (Gibco), and 50 μg/ml of streptomycin (Gibco)]. At 70-80% confluence, 250 μmol/L IBMX (Sigma, St. Louis, MI, USA) and 5 μmol/L rosiglitazone (Enzo Life Sciences, Raamsdonksveer, Netherlands) were added to induce adipogenic differentiation. Experiments were carried out between days 12 and 14 of the differentiation. To study the effect of butyric acid (10^-4M) and hexanoic acid (10^-5M) on the expression of the anti-inflammatory cytokine IL-10, hMADS derived adipocytes were incubated with butyric acid, hexanoic acid or the combination thereof. […]

SMILES	concentration of IL-6 (IL-6)	expression of IL-10 (mRNA) (IL-10)
CCCC(=O)O [butyric acid]	lower	small increase
CCCCCC(=O)O [hexanoic acid]	lower	small increase
